We go through seven molecules from patent US8106080B2, “Compositions and methods for enhancing nitric oxide delivery” (priority 2006, dated 2012).

SMILES strings stand for the structures. Like-named read-outs stand apart in the source and are kept apart here. Marks after values point to notes of the source that are not given here.

Series [1] has as its system EDL muscles from normal C57Black/6 mice. Nature of the series: DNA synthesis ([3H]-thymidine) in whole-muscle EDL culture, normal mice. In kind it is cell-based. The conditions noted are these: NO donor alone; whole mouse EDL-muscle cultures; FIG. 2. As for the experimental part:
The proposed model of satellite cell activation as a function of NO is supported by a study of the effect of two known NO donor compounds-ISDN and DPTA-on whole mouse EDL-muscle cultures (FIG. 2), which studies were performed using in vitro methods described below. Results are reported in dpm (“disintegrations per minute”) per amount of DNA (here μg). […] In all cases, each sample was assayed in duplicate for counts, and in triplicate for DNA content (micrograms), the latter according to a standard curve of 5 or more standard concentrations that was established with a regression line having r^2 in the linear regression analysis greater than 0.97 at each assay.
Extensor digitorum longus (EDL) muscles were dissected cleanly and carefully from normal C57Black/6 mice (8 weeks old) without stretching or trauma that could easily activate satellite cells. Each muscle was aligned radially in one well of a 6-well Flex II culture plate (Flexcell International, N.C., USA), and the tendons were pinned so the muscle was at resting length. […]
(§1) DNA was isolated from the tissues. DNA synthesis was assayed by scintillation counting in Ready Safe scintillation cocktail (Beckman), and the concentration of DNA in each sample was assayed using a fluorescence assay (calibrated against a standard curve). The data were calculated as DNA synthesis per microgram of DNA in each sample.

Series [2] has as its system back muscle tissue homogenate. Nature of the series: EPR assay of NO release, back muscle homogenate. In kind it is biochemical, mouse. As for the experimental part: (§2) In the experiment liver and back muscle tissue taken from C57Black/6 mice were homogenized in ice-cold sucrose buffer. A small amount of MyoNovin was dissolved in dimethylsulfoxide and added to the tissue homogenates. An NO spin-trap molecule N-Methyl-D-glucamine dithiocarbamate (MGD) was added to the homogenate-MyoNovin mixture as a stable iron complex [10 μl of 50 mM MGD in saline; (containing MGD at 50 mM and Fe^2+ at 10 mM)] in order to trap any NO released from the tissue homogenate. The entire homogenate mixture plus NO spin-trap solution was then incubated for 1 hour at 37° C. After incubation, a sample of homogenate (16 μl) was loaded into a quartz capillary tube for determination of the EPR spectrum. EPR spectra were then obtained using a Bruker EMXEPR spectrometer (Bruker, Co., Billerica, Mass.) at room temperature (25° C.). The instrument settings were: 9.25 GHz microwave frequency; 100 kHz modulation frequency; 20 mW microwave power, 4 G modulation amplitude, 40 ms time constant, 42 s scan time, and 100 Gauss scan range, and 3410 G center field.
(§3) FIG. 20 is a compilation of the spectra obtained. Curve A represents a blank control sample (the homogenate and NO spin-trap for the EPR assay, without the addition of MyoNovin). Curve B is an NO standard (homogenate and NO spin-trap for the EPR assay, bubbled with NO gas). […]

The next series deals with mdx dystrophic mice. Nature of the series: DNA synthesis in back muscle after topical application, mdx mice. It is filed as in vivo, mouse. As to conditions: transdermal, FIG. 18. An excerpt:
Ointments were applied according to the following procedure. • 1. Animals were anesthetized with isoflurane and the mid-dorsal skin (on the back) was shaved, washed with soap and water, and air dried. • 2. The ointment was applied to the sterile pad on an adhesive bandage. Control bandages were coated with the ointment base only. After topical application in which the bandages were applied to the shaved back region, bandages were wrapped with medical adhesive. The animals had the Elizabethan collar fitted while under anesthesia, to prevent their later chewing at the adhesive tape. Eyes were irrigated regularly, as animals were unable to groom well while wearing the cone. • 3. Animals were treated for a total of 24 hours. There were no apparent effects of treatment on behaviour. • 4. Two hours before euthanasia, the mice were injected with 2 μCi per gram body weight of tritiated-thymidine (intra peritoneal) to label DNA synthesis. • 5. At 24 hours from the start of ointment application, animals were euthanized using cervical dislocation under anesthesia provided by pentobarbital injection. […] DNA synthesis was assayed by scintillation counting in Ready Safe scintillation cocktail (Beckman), and the concentration of DNA in each sample was assayed using a fluorescence assay (calibrated against a standard curve). The data were calculated as DNA synthesis per microgram of DNA in each sample. […]

Series [3] has as its system EDL muscles from old (12-month-old) normal mice. Description: DNA synthesis in whole-muscle EDL culture from 12-month-old mice. It is filed as cell-based, mouse. As to conditions: MyoNovin higher dose of 2, L-NAME both doses (very high), FIG. 19. The procedure: […] Each muscle was aligned radially in one well of a 6-well Flex II culture plate (Flexcell International, N.C., USA), and the tendons were pinned so the muscle was at resting length. The muscles were incubated in growth medium ([…], DMEM, containing 15% v/v horse serum (HyClone Laboratories Inc.) and 2% v/v chick embryo extract (ICN Biomedicals) at 37° C. in 5% CO2). Muscles in the wells were treated with or without an NO donor. [^3H]-Thymidine was added to the medium at the beginning of treatment, and cultures were maintained for 24 hours to allow incorporation of the isotope into new DNA. At the end of 24 hours, muscles were removed from wells, tendons were trimmed away, and the muscles were frozen at −20° C. for future analysis.
as §1
Data from an experiment on EDL muscles in culture, isolated from old (12-month-old) normal […] mice were conducted using the method described above for methocarbomol and ISDN.
In this experiment, muscles were treated with MyoNovin (2 doses) or the NOS inhibitor, L-NAME (2 doses).

The test system of a further series is liver tissue homogenate. Description: EPR assay of NO release, liver homogenate. In kind it is biochemical, mouse. The conditions noted are these: MGD spin-trap, 1 hour at 37° C., FIG. 20. As for the experimental part: as §2, §3
Where [4] appears, read: 1% methocarbamol, 0.2% ISDN ointment, topical 24 h, FIG. 7.
Setting [5] is: 0.25% carisoprodol, 1% DETA, topical, FIG. 8.
Setting [6] is: back muscle, topical ointment on back, 24 h, DNA synthesis per microgram of DNA.
Setting [7] is: gut (positive control tissue), topical ointment on back, 24 h, per microgram of DNA.
The mark [8] stands for this setting: heart (negative control tissue), topical ointment on back, 24 h, per microgram of DNA.
[9] abbreviates: quadriceps, topical ointment on back, 24 h, DNA synthesis per microgram of DNA.

`O=[N+]([O-])O[C@H]1CO[C@H]2[C@@H]1OC[C@H]2O[N+](=O)[O-]` [ISDN, isosorbide dinitrate]: the “DNA synthesis in back muscle (in words)” value in the series with normal C57Black/6 mice (setting [4]) is given as “increase in DNA synthesis”. The “DNA synthesis (3H-thymidine incorporation) compared to a control muscle” value in series [1] was “stimulate an increase in DNA synthesis”.

As for `COc1ccccc1OCC(CO[N+](=O)[O-])O[N+](=O)[O-]` (stereo not shown) [MyoNovin, 1,2-di-O-nitro-3(o-methoxyphenoxy)-propanediol], the “NO release (EPR)” value in series [2] (back muscle homogenate, MGD spin-trap, 1 hour at 37° C., FIG. 20) is on record as “strong release of NO”; in the series on liver tissue homogenate it was “strong release of NO”. Further, the “time-course of NO release” value in series [2] (back muscle homogenates, FIG. 21) is recorded as “more than two hours”. Also, the “side effects to animal behaviour, appearance or weight” value in the series with normal C57Black/6 mice (transdermal MyoNovin, 24 h, normal mice) is recorded as “no apparent side effects”. Moreover, the “increase in muscle cell proliferation (DNA synthesis)” value in the series on normal C57Black/6 mice (transdermal, over a 24-hour period, normal mice, FIG. 17) is reported as 37-39%. Further, the “DNA synthesis in back muscle compared to the control” value in the series on mdx dystrophic mice is “decreased”. Also, the “DNA synthesis in EDL muscles in culture” value in series [3] was “increased DNA synthesis”.

With `CCCC(C)(COC(N)=O)COC(=O)NC(C)C` (stereo not shown) [carisoprodol], in the series on normal C57Black/6 mice (setting [5]), the “DNA synthesis in back muscle (in words)” value was “induce increased DNA synthesis” and the “DNA synthesis in quadriceps (in words)” value was “induce increased DNA synthesis”.

Regarding `COc1ccccc1OCC(O)COC(N)=O` (stereo not shown) [MC, methocarbamol], the “DNA synthesis in back muscle (in words)” value in the series on normal C57Black/6 mice (setting [4]) is reported as “increase in DNA synthesis”. In addition, the “DNA synthesis, Back Muscle, Mean” value in the series with normal C57Black/6 mice (back muscle, mean of experiments, outliers (*) excluded, MC/ISDN mean covers samples (a) and (b)) is 427.5. Moreover, in the series with normal C57Black/6 mice (setting [6]), the “DNA synthesis, Back Muscle, Experiment 1” value worked out at 430.5; the “DNA synthesis, Back Muscle, Experiment 2” value is 734*; the “DNA synthesis, Back Muscle, Experiment 3” value was 422.7; the “DNA synthesis, Back Muscle, Experiment 4” value came out at 429.43. In the series on normal C57Black/6 mice (setting [7]), the “DNA synthesis, Gut, Experiment 2” value was determined as 123; the “DNA synthesis, Gut, Experiment 3” value was found to be 239.2; the “DNA synthesis, Gut, Experiment 4” value turned out to be 225.9. Also, the “DNA synthesis, Gut, Mean” value with normal C57Black/6 mice (gut, mean of experiments, MC/ISDN mean covers samples (a) and (b)) worked out at 196.0. Besides, in the series on normal C57Black/6 mice (setting [8]), the “DNA synthesis, Heart, Experiment 2” value was 186; the “DNA synthesis, Heart, Experiment 3” value turned out to be 221.3; the “DNA synthesis, Heart, Experiment 4” value came to 240.76. Besides, the “DNA synthesis, Heart, Mean” value in the series on normal C57Black/6 mice (heart, mean of experiments, MC/ISDN mean covers samples (a) and (b)) worked out at 216.0. The “DNA synthesis, Quadriceps, Mean” value in the series with normal C57Black/6 mice (quadriceps, mean of experiments, MC/ISDN mean covers samples (a) and (b)) worked out at 456.3. In the series on normal C57Black/6 mice (setting [9]), the “DNA synthesis, Quadriceps, Experiment 1” value is reported as 507; the “DNA synthesis, Quadriceps, Experiment 2” value amounted to 573; the “DNA synthesis, Quadriceps, Experiment 3” value turned out to be 404.1; the “DNA synthesis, Quadriceps, Experiment 4” value amounted to 340.9.

On to `COC(=O)[C@@H](N)CCCNC(=N)N[N+](=O)[O-]` [L-NAME, L-nitro-arginine methyl ester], for which the “DNA synthesis in EDL muscles in culture” value in series [3] is recorded as “decreased DNA synthesis”.

As to `NCCCN(CCCN)/[N+]([O-])=N/O` [DPTA, dipropylenetriamine-NONOate], in series [1], the “DNA synthesis (3H-thymidine incorporation) compared to a control muscle” value is “stimulate an increase in DNA synthesis”.

Turning to `NCCN(CCN)/[N+]([O-])=N/O` [DETA, diethylenetriamine-NONOate], in the series with normal C57Black/6 mice (setting [5]), the “DNA synthesis in back muscle (in words)” value is listed as “induce increased DNA synthesis” and the “DNA synthesis in quadriceps (in words)” value is “induce increased DNA synthesis”.
